What all share (assay type): biochemical
The target of test [1] is T1, μ-opioid receptor (Homo sapiens (Human), UniProt P35372). Nature of the test: μ-opioid receptor [35S]GTPγS functional assay (HEK). The settings on record: for Emax: relative to DAMGO. As for the experimental part:
(§1) [^35S]GTPγS functional assays were conducted using freshly thawed μ-receptor membranes prepared in-house from a cell line expressing recombinant μ opioid receptor in a HEK-293, CHO or U-2 OS cell background, or purchased from a commercial source (Perkin Elmer, Shelton, Conn.; or DiscovRx, Fremont, Calif.). Assay reactions were prepared by sequentially adding the following reagents to binding buffer (100 mM NaCl, 10 mM MgCl2, 20 mM HEPES, pH 7.4) on ice (final concentrations indicated): membrane protein (0.026 mg/mL), saponin ([…]), GDP ([…]) and [^35S]GTPγS (0.20 nM; Perkin Elmer, Shelton, Conn.). The prepared membrane solution (190 μl/well) was transferred to 96-shallow well polypropylene plates containing 10 μl of 20× concentrated stock solutions of the agonist [D-Ala^2, N-methyl-Phe^4 Gly-ol^5]-enkephalin (DAMGO) prepared in dimethyl sulfoxide (DMSO). Plates were incubated for […] at about 25° C. with shaking. Reactions were terminated by rapid filtration onto 96-well Unifilter GF/B filter plates (Perkin Elmer, Shelton, Conn.) using a 96-well tissue harvester (Perkin Elmer, Shelton, Conn.) followed by three filtration washes with 200 μl of ice-cold wash buffer (10 mM NaH2PO4, 10 mM Na2HPO4, pH 7.4). Filter plates were subsequently dried at 50° C. for 2-3 hours. BetaScint scintillation cocktail (Perkin Elmer, Shelton, Conn.) was added (50 μl/well) and plates were counted using a Packard Top-Count for 1 min/well. Data were analyzed using the sigmoidal dose-response curve fitting functions in GraphPad PRISM v. 3.0, or an in-house function for non-linear, sigmoidal dose-response curve-fitting.
(§2) μ GTP EC50 is the concentration of a compound providing 50% of the maximal response for the compound at a μ-opioid receptor.
(§3) μ GTP Emax (%) is the maximal effect elicited by a compound relative to the effect elicited by DAMGO, a standard agonist. Generally, the μ GTP Emax (%) value measures the efficacy of a compound to treat or prevent pain or other Conditions.
(§4) In TABLE 3, activity response of certain Compounds of the Invention to the μ- and κ-opioid receptors was determined as described above for functional assays using HEK cells.

In test [2] the target is T1, μ-opioid receptor. Put plainly: μ-opioid receptor [35S]GTPγS functional assay (U-2 OS). The settings on record: for Emax: U2OS, GTPγS, relative to DAMGO. As for the experimental part:
as §1, §2, §3
(§5) In TABLE 4, activity response of certain Compounds of the Invention to the μ- and κ-opioid receptors was determined as described above for functional assays using U-2 OS cells.
In general terms: Binding of GTPγS marks nucleotide exchange on a G protein.

Test [3] deals with T2, κ opioid receptor (Homo sapiens (Human), UniProt P41145). Put plainly: κ-opioid receptor [35S]GTPγS functional assay (U-2 OS). The note with it: for Emax: U2OS, GTPγS, relative to U69,593. The protocol:
(§6) Functional [^35S]GTPγS binding assays were conducted as follows. K opioid receptor membrane solution was prepared by sequentially adding final concentrations of 0.026 μg/μl membrane protein (in-house), 10 μg/mL saponin, 3 μM GDP and 0.20 nM [^35S]GTPγS to binding buffer (100 mM NaCl, 10 mM MgCl2, 20 mM HEPES, pH 7.4) on ice. The prepared membrane solution (190 μl/well) was transferred to 96-shallow well polypropylene plates containing 10 μl of 20× concentrated stock solutions of agonist prepared in DMSO. Plates were incubated for 30 min at a temperature of about 25° C. with shaking. Reactions were terminated by rapid filtration onto 96-well Unifilter GF/B filter plates (Perkin Elmer, Shelton, Conn.) using a 96-well tissue harvester (Packard) and followed by three filtration washes with 200 μl ice-cold binding buffer (10 mM NaH2PO4, 10 mM Na2HPO4, pH 7.4). Filter plates were subsequently dried at 50° C. for 2-3 hours. Fifty μl/well scintillation cocktail (Perkin Elmer, Shelton, Conn.) was added and plates were counted in a Packard Top-Count for 1 min/well.
(§7) GTP EC50 is the concentration of a compound providing 50% of the maximal response for the compound at a κ receptor.
(§8) κ GTP Emax (%) is the maximal effect elicited by a compound relative to the effect elicited by U69,593.
as §5

Test [4] addresses T2, κ opioid receptor. Nature of the test: κ-opioid receptor [35S]GTPγS functional assay (HEK). The note with it: for Emax: HEK, GTPγS, relative to U69,593. As for the experimental part: as §6, §7, §8, §4

By EC50 is commonly meant the concentration that produces a half-maximal response. As a reminder, the Emax is the maximal effect, on the per cent scale that the assay sets.

`COc1ccc2c(c1)[C@]13CCN(C)[C@H](C2)[C@]1(O)CC1=CC(=O)N[C@H]1C3` [Compound 2, (6R,6aS,10aS,11aR)-6a-hydroxy-2-methoxy-14-methyl-5,6,6a,7,10a,11-hexahydro-6,11a-(epiminoethano)naphtho[2,1-f]indol-9(10H)-one]: the EC50 on μ-opioid receptor [1] is 12.3 ± 0.615 µM; on μ-opioid receptor [2] it was 738 ± 59 nM; at κ opioid receptor [3], above 20000 nM. The maximal response (Emax) at μ-opioid receptor [1] (HEK, GTPγS) is 51.8 ± 0.39%; on μ-opioid receptor [2], 103.3 ± 0.67%; at κ opioid receptor [3], 84.7 ± 2.73%.
`COc1ccc2c(c1)[C@]13CCN(C)[C@H](C2)[C@]1(O)C[C@H]1CC(=O)N[C@H]1C3` [Compound 3, (6R,6aS,7aS,10aS,11aR)-6a-hydroxy-2-methoxy-14-methyl-5,6,6a, 7,7a,8,10a,11-octahydro-6,11a-(epiminoethano)naphtho[2,1-f]indol-9(10H)-one]: the EC50 at μ-opioid receptor [1] was 2.28 µM; on κ opioid receptor [4], 18800 ± 4870 nM; at μ-opioid receptor [2], 92.9 ± 6.03 nM; on κ opioid receptor [3], above 20000 nM. Also, the Emax at μ-opioid receptor [1] (HEK, GTPγS) was 106 ± 0.58%; on κ opioid receptor [4] it was 52 ± 6.11%; on μ-opioid receptor [2], 102.7 ± 0.67%; at κ opioid receptor [3], 108 ± 9.39%.
`O=C1C[C@@H]2C[C@@]3(O)[C@H]4Cc5ccc(O)cc5[C@@]3(CCN4CCCc3ccccc3)C[C@@H]2N1` [Compound 4, (6R,6aS,7aS,10aS,11aR)-2,6a-dihydroxy-14-(3-phenylpropyl)-5,6,6a,7,7a,8,10a,11-octahydro-6,11a-(epiminoethano)naphtho[2,1-f]indol-9(10H)-one] displayed an EC50 on μ-opioid receptor [1] of 0.321 ± 0.0206 µM. The molecule further gave an Emax at μ-opioid receptor [1] (HEK, GTPγS) of 47.3 ± 7.26%.
For `O=C1C[C@@H]2C[C@@]3(O)[C@H]4Cc5ccc(O)cc5[C@@]3(CCN4CC3CCOCC3)C[C@@H]2N1` [Compound 6, (6R,6aS,7aS,10aS,11aR)-2,6a-dihydroxy-14-((tetrahydro-2H-pyran-4-yl)methyl)-5,6,6a,7,7a,8,10a,11-octahydro-6,11a-(epiminoethano)naphtho[2,1-f]indol-9(10H)-one], the EC50 at μ-opioid receptor [1] came to 1.47 µM. This molecule returned an Emax at μ-opioid receptor [1] (HEK, GTPγS) of 7.33 ± 0.88%.
For the molecule `O=C1C[C@@H]2C[C@@]3(O)[C@H]4Cc5ccc(O)cc5[C@@]3(CCN4CC[C@@]3(c4ccccn4)CCOC4(CCCC4)C3)C[C@@H]2N1` [Compound 7, (6R,6aS,7aS,10aS,11aR)-2,6a-dihydroxy-14-(2-((R)-9-(pyridin-2-yl)-6-oxaspiro-[4.5]decan-9-yl)ethyl)-5,6,6a,7,7a,8,10a,11-octahydro-6,11a-(epiminoethano)-naphtho[2,1-f]indol-9(10H)-one], at μ-opioid receptor [1] (HEK, GTPγS, bound given in μM, read-out: μ EC50), the EC50 was above 20 µM. For the same molecule, at μ-opioid receptor [1] (HEK, GTPγS), the maximum response (Emax) is 4.5%.
As for `CCN1C(=O)C[C@@H]2C[C@@]3(O)[C@H]4Cc5ccc(OC)cc5[C@@]3(CCN4CC3CC3)C[C@@H]21` [Compound 11, (6R,6aS,7aS,10aS,11aR)-14-(cyclopropylmethyl)-10-ethyl-6a-hydroxy-2-methoxy-5,6,6a,7,7a,8,10a,11-octahydro-6,11a-(epiminoethano)naphtho[2,1-f]indol-9(10H)-one], the EC50 on μ-opioid receptor [1] was found to be 0.625 ± 0.0326 µM; at μ-opioid receptor [2], 204 ± 11.2 nM; at κ opioid receptor [3] it was 16.9 ± 1.96 nM. In addition, the Emax at μ-opioid receptor [1] (HEK, GTPγS) is 36.4 ± 2.23%; at μ-opioid receptor [2], 78 ± 3%; on κ opioid receptor [3] it was 107 ± 3.94%.
`CN1C(=O)C[C@@H]2C[C@@]3(O)[C@H]4Cc5ccc(O)cc5[C@@]3(CCN4CC3CC3)C[C@@H]21` [Compound 12, (6R,6aS,7aS,10aS,11aR)-14-(cyclopropylmethyl)-2,6a-dihydroxy-10-methyl-5,6,6a,7,7a,8,10a,11-octahydro-6,11a-(epiminoethano)naphtho[2,1-f]indol-9(10H)-one]: the EC50 turned out to be 0.00218 ± 2.1e-05 µM on μ-opioid receptor [1] and 0.66 ± 0.014 nM on κ opioid receptor [4]. The Emax turned out to be 29.3 ± 0.33% on μ-opioid receptor [1] (HEK, GTPγS) and 106 ± 6.78% on κ opioid receptor [4].
In the case of `COc1ccc2c(c1)[C@]13CCN(CC4CC4)[C@H](C2)[C@]1(O)C[C@H]1CC(=O)N(CC(C)C)[C@H]1C3` [Compound 13, (6R,6aS,7aS,10aS,11aR)-14-(cyclopropylmethyl)-6a-hydroxy-10-isobutyl-2-methoxy-5,6,6a,7,7a,8,10a,11-octahydro-6,11a-(epiminoethano)naphtho[2,1-f]indol-9(10H)-one], the EC50 on μ-opioid receptor [1] was 0.224 ± 0.0346 µM; on μ-opioid receptor [2], 82.2 ± 1.71 nM; on κ opioid receptor [3], 19.5 ± 1.37 nM. Moreover, the Emax was 13.2 ± 1.39% at μ-opioid receptor [1] (HEK, GTPγS); 55 ± 2% at μ-opioid receptor [2]; 106 ± 2.4% on κ opioid receptor [3].
For the molecule `COc1ccc2c(c1)[C@]13CCN(CC4CC4)[C@H](C2)[C@]1(O)C[C@H]1CC(=O)N(CC2CC2)[C@H]1C3` [Compound 14, (6R,6aS,7aS,10aS,11aR)-10,14-bis(cyclopropylmethyl)-6a-hydroxy-2-methoxy-5,6,6a,7,7a,8,10a,11-octahydro-6,11a-(epiminoethano)naphtho[2,1-f]indol-9(10H)-one], the EC50 was found to be 0.146 ± 0.0211 µM at μ-opioid receptor [1], 49.5 ± 3.87 nM at μ-opioid receptor [2] and 16.6 ± 1.93 nM at κ opioid receptor [3]. Besides, the Emax at μ-opioid receptor [1] (HEK, GTPγS) was found to be 13.2 ± 0.95%; at μ-opioid receptor [2] it was 43.7 ± 4.7%; at κ opioid receptor [3], 101.8 ± 0.63%.
In the case of `COc1ccc2c(c1)[C@]13CCN(CC4CC4)[C@H](C2)[C@]1(O)C[C@H]1CC(=O)N(C)[C@H]1C3` [Compound 15, (6R,6aS,7aS,10aS,11aR)-14-(cyclopropylmethyl)-6a-hydroxy-2-methoxy-10-methyl-5,6,6a,7,7a,8,10a,11-octahydro-6,11a-(epiminoethano)naphtho[2,1-f]indol-9(10H)-one], the EC50 at μ-opioid receptor [1] amounted to 0.863 ± 0.0697 µM; on μ-opioid receptor [2], 349 ± 26.3 nM; at κ opioid receptor [3], 113 ± 36.3 nM. In addition, the Emax on μ-opioid receptor [1] (HEK, GTPγS) was found to be 23.6 ± 2.32%; on μ-opioid receptor [2], 75 ± 3%; at κ opioid receptor [3], 129 ± 5%.
On to `O=C1C[C@@H]2C[C@@]3(O)[C@H]4Cc5ccc(O)cc5[C@@]3(CCN4CC3CC3)C[C@@H]2N1CC1CC1` [Compound 17, (6R,6aS,7aS,10aS,11aR)-10,14-bis(cyclopropylmethyl)-2,6a-dihydroxy-5,6,6a,7,7a,8,10a,11-octahydro-6,11a-(epiminoethano)-naphtho[2,1-f]indol-9(10H)-one], for which, at μ-opioid receptor [1], the half-maximal effective concentration (EC50) was above 20 µM. Besides, on μ-opioid receptor [1] (HEK, GTPγS), the Emax stood at 1%.
For `O=C1C=C2C[C@@]3(O)[C@H]4Cc5ccc(O)cc5[C@]3(C=C2N1CC1CC1)CCN4CC1CC1` [Compound 18, (6R,6aS,11aR)-10,14-bis(cyclopropylmethyl)-2,6a-dihydroxy-5,6,6a,7-tetrahydro-6,11a-(epiminoethano)naphtho[2,1-f]indol-9(10H)-one], in that order: above 20 µM and 6%.
The matching figures for `COc1ccc2c(c1)[C@]13CCN(C)[C@H](C2)[C@]1(O)C[C@@H]1NC(=O)O[C@@H]1C3` [Compound 19, (6R,6aS,7aS,10aR,11aR)-6a-hydroxy-2-methoxy-14-methyl-5,6,6a,7,7a,8,10a,11-octahydro-9H-6,11a-(epiminoethano)phenanthro[2,3-d]oxazol-9-one]: above 20 µM and 2 ± 0.58%.
`CN1CC[C@]23C[C@@H]4OC(=O)N[C@H]4C[C@@]2(O)[C@H]1Cc1ccc(O)cc13` [Compound 20, (6R,6aS,7aS,10aS,11aR)-2,6a-dihydroxy-14-methyl-5,6,6a,7,7a,8,10a,11-octahydro-9H-6,11a-(epiminoethano)phenanthro[2,3-d]oxazol-9-one] yielded a half-maximal effective concentration (EC50) on μ-opioid receptor [1] of 1.31 µM. Further, the maximal response (Emax) on μ-opioid receptor [1] (HEK, GTPγS) came to 12.4 ± 0.77%.
